Data on 37 molecules can be found in patent US20240262832A1, “SMALL MOLECULE MODULATORS OF GLUCOCEREBROSIDASE ACTIVITY AND USES THEREOF” (Vanqua Bio, Inc., priority 2021, published 2024).

Bounds are passed on as bounds.

The assay concerns the target T1, GCase (Homo sapiens, UniProt P04062).
T1 construct: endogenous in cells; host or cells: HeLa cells
T1 sequence (P04062 40-536): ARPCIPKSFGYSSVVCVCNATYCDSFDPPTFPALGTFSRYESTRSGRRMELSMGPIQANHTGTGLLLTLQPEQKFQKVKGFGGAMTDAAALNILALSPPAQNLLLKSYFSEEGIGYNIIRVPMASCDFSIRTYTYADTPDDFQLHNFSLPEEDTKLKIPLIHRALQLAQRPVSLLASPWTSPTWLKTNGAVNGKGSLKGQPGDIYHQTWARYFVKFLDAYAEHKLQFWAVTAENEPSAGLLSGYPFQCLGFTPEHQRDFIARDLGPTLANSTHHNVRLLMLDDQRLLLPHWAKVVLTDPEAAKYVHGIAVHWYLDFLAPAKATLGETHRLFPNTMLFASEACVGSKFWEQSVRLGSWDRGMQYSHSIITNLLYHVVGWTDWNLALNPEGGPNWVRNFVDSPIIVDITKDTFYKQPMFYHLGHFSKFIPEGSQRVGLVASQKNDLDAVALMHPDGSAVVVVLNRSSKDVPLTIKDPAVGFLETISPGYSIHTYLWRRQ
The experiment in a line: activation of GCase in a live cell PFB assay in HELA cells. The format is cell-based.
The term EC50 denotes the concentration needed to bring the measured effect to its halfway point. Low readings indicate higher potency in that assay, high ones lower potency in that assay. `O=C(c1ccc2cc[nH]c2c1)N1CCC(Oc2cc(C(F)(F)F)ccn2)CC1` [Compound 322, (1H-Indol-6-yl)(4-((4-(trifluoromethyl)pyridin-2-yl)oxy)piperidin-1-yl)methanone] yielded a concentration giving a half-maximal response (EC50) of 50 to 100 µM. `FC(F)Cn1ncc2ncc(N3C[C@@H]4[C@@H](COc5cncc(C(F)(F)F)c5)[C@@H]4C3)nc21` [Compound 62, (1R,5S,6S)-3-[1-(2,2-difluoroethyl)-1H-pyrazolo[3,4-b]pyrazin-6-yl]-6-({[5-(trifluoromethyl)pyridin-3-yl]oxy}methyl)-3-azabicyclo[3.1.0]hexane]: the EC50 lay within 10 to 50 µM. The value for `Cc1nccn1CCCC(=O)N1CCC(OCc2ccccc2)CC1` [Compound 451] was above 100 µM; that for `COCCNc1nc2cc(C(=O)N3CCC(O)(CO)CC3)ccc2n1C` [Compound 486] was 10 to 50 µM; that for `C[C@@H](Oc1cccnc1C(F)(F)F)[C@H]1CCCN(c2cncc(-c3nncs3)n2)C1` [Compound 45b, 2-(6-((S)-3-((R)-1-((2-(trifluoromethyl)pyridin-3-yl)oxy)ethyl)piperidin-1-yl)pyrazin-2-yl)-1,3,4-thiadiazole] was below 10 µM. Molecule `FC(F)Cn1ncc2ncc(N3CCCC(F)(COc4cccnc4C(F)(F)F)C3)nc21` (stereo not shown) [Compound 35, 3-({1-[1-(2,2-Difluoroethyl)-1H-pyrazolo[3,4-b]pyrazin-6-yl]-3-fluoropiperidin-3-yl}methoxy)-2-(trifluoromethyl)pyridine] registered an EC50 of 10 to 50 µM. The figure for `CC1CC(COc2cccnc2C(F)(F)F)CN(c2cncc(-c3nncs3)n2)C1` (single isomer, unassigned) [Compound 262b] is below 10 µM; for `COc1cc(C(=O)N2CCCC(COc3ccccc3)C2)c(Cl)cc1Cl` (stereo not shown) [Compound 155] it is 10 to 50 µM; for `CC1C(COc2cccnc2C(F)(F)F)CCCN1c1cnc2cnn(CC(F)F)c2n1` (stereo not shown) [Compound 116, 1-(2,2-Difluoroethyl)-6-(2-methyl-3-(((2-(trifluoromethyl)pyridin-3-yl)oxy)methyl)piperidin-1-yl)-1H-pyrazolo[3,4-b]pyrazine] it is below 10 µM.

For `Cc1ccccc1OCC1CCCN(C(=O)c2cnn3c(-c4ccccc4)ccc(F)c23)C1` (stereo not shown) [Compound 292, (4-Fluoro-7-phenylpyrazolo[1,5-a]pyridin-3-yl)(3-((o-tolyloxy)methyl)piperidin-1-yl)methanone], the EC50 was 10 to 50 µM. The figure for `COc1ccc(OCC2CCN(Cc3cscn3)CC2)cc1` [Compound 477] is below 10 µM. With `C[C@@H]1CCN(c2cnc3cnn(CC(F)F)c3n2)C[C@@H]1COc1cccnc1C(F)(F)F` [Compound 48a, 1-(2,2-Difluoroethyl)-6-((3R,4R)-4-methyl-3-(((2-(trifluoromethyl)pyridin-3-yl)oxy)methyl)piperidin-1-yl)-1H-pyrazolo[3,4-b]pyrazine], the EC50 was above 100 µM.

For the molecule `CCn1c(=O)n(CC)c2nc(N3C[C@@H](C)C[C@H](COc4cccnc4C(F)(F)F)C3)cnc21` [Compound 288b, 1,3-Diethyl-5-((3S,5S)-3-methyl-5-(((2-(trifluoromethyl)pyridin-3-yl)oxy)methyl)piperidin-1-yl)-1,3-dihydro-2H-imidazo[4,5-b]pyrazin-2-one], the half-maximal effective concentration (EC50) is 10 to 50 µM. The figure for `O=C(Cc1ccc(OC(F)F)c(F)c1)N1CCCC(COc2ccccc2)C1` (stereo not shown) [Compound 198] is 10 to 50 µM; for `CCCCCCC(C)C(=O)N1CCCC(COc2ccccc2)C1` (stereo not shown) [Compound 132] it is below 10 µM.

Take `CC1CCC(COc2cccnc2C(F)(F)F)CN1c1cnc2cnn(CC(F)(F)F)c2n1` (stereo not shown) [Compound 122, 6-(2-Methyl-5-(((2-(trifluoromethyl)pyridin-3-yl)oxy)methyl)piperidin-1-yl)-1-(2,2,2-trifluoroethyl)-1H-pyrazolo[3,4-b]pyrazine]: the EC50 was below 10 µM. The figure for `COc1cnc2c(n1)c(C(=O)N1CCCC(COc3ccccc3C)C1)c(-c1ccccc1)n2C` (stereo not shown) [Compound 264, (2-Methoxy-5-methyl-6-phenyl-5H-pyrrolo[2,3-b]pyrazin-7-yl)(3-((o-tolyloxy)methyl)piperidin-1-yl)methanone] is 10 to 50 µM; for `FC(F)(F)c1ncccc1OC[C@@H]1[C@H]2CN(c3nccc(-c4nncs4)n3)C[C@@H]12` [Compound 121, (1R,5S,6r)-3-(4-(1,3,4-Thiadiazol-2-yl)pyrimidin-2-yl)-6-(((2-(trifluoromethyl)pyridin-3-yl)oxy)methyl)-3-azabicyclo[3.1.0]hexane] it is 10 to 50 µM; for `COc1ccc(OCC2CCN(C(=O)c3ccc(CN4CCCC4)o3)CC2)cc1` [Compound 457] it is above 100 µM. For the molecule `Cn1c(-c2ccc(F)cc2)cc2ncc(C(=O)N3CCCC(COc4cccnc4C(F)(F)F)C3)nc21` (stereo not shown) [Compound 58, (6-(4-fluorophenyl)-5-methyl-5H-pyrrolo[2,3-b]pyrazin-3-yl)(3-(((2-(trifluoromethyl)pyridin-3-yl)oxy)methyl)piperidin-1-yl)methanone], the EC50 lay within 10 to 50 µM. `O=C(Cc1csc(-c2ccccc2)n1)N1CCC(Oc2ccnc(C(F)(F)F)c2)CC1` [Compound 399, 2-(2-Phenyl-1,3-thiazol-4-yl)-1-(4-{[2-(trifluoromethyl)pyridin-4-yl]oxy}piperidin-1-yl)ethan-1-one]: the EC50 was in the range of 10 to 50 µM. On to `Cc1ccccc1OCC1CCCN(C(=O)c2cn(C)c3ccn(-c4ccccc4)c(=O)c23)C1` (stereo not shown) [Compound 38, 1-Methyl-5-phenyl-3-(3-((o-tolyloxy)methyl)piperidine-1-carbonyl)-1,5-dihydro-4H-pyrrolo[3,2-c]pyridin-4-one], for which the EC50 lay within 10 to 50 µM.

With `FC(F)Cn1ncc2ncc(N3CC4CC4(COc4cc(C(F)(F)F)ccn4)C3)nc21` (stereo not shown) [Compound 285, 3-[1-(2,2-Difluoroethyl)-1H-pyrazolo[3,4-b]pyrazin-6-yl]-1-({[4-(trifluoromethyl)pyridin-2-yl]oxy}methyl)-3-azabicyclo[3.1.0]hexane], the concentration giving a half-maximal response (EC50) was 10 to 50 µM. As to `FC(F)Cn1ncc2ncc(N3C[C@@H]4[C@@H](COc5cccnc5C(F)(F)F)[C@@H]4C3)nc21` [Compound 1, (1R,5S,6S)-3-[1-(2,2-difluoroethyl)-1H-pyrazolo[3,4-b]pyrazin-6-yl]-6-({[2-(trifluoromethyl)pyridin-3-yl]oxy}methyl)-3-azabicyclo[3.1.0]hexane], the EC50 was below 10 µM. The value for `C[C@@H]1C[C@H](COc2cccnc2C(F)(F)F)CN(c2cnc3cnn(CC(F)F)c3n2)C1` [Compound 47a, 1-(2,2-Difluoroethyl)-6-((3R,5S)-3-methyl-5-(((2-(trifluoromethyl)pyridin-3-yl)oxy)methyl)piperidin-1-yl)-1H-pyrazolo[3,4-b]pyrazine] was below 10 µM; that for `C[C@H]1CCN(c2cnc3cnn(CC(F)F)c3n2)C[C@H]1COc1cccnc1C(F)(F)F` [Compound 48b, 1-(2,2-difluoroethyl)-6-((3S,4S)-4-methyl-3-(((2-(trifluoromethyl)pyridin-3-yl)oxy)methyl)piperidin-1-yl)-1H-pyrazolo[3,4-b]pyrazine] was above 100 µM. The molecule `O=C(Cc1cc(Cl)cs1)N1CCCC(COc2ccccc2)C1` (stereo not shown) [Compound 161] yielded an EC50 of 10 to 50 µM. The value for `O=c1[nH]c(N2CCC[C@H](COc3cccnc3C(F)(F)F)C2)cc2c1cnn2CC(F)F` [Compound 306, (S)-1-(2,2-difluoroethyl)-6-(3-(((2-(trifluoromethyl)pyridin-3-yl)oxy)methyl)piperidin-1-yl)-1,5-dihydro-4H-pyrazolo[4,3-c]pyridin-4-one] was above 100 µM; that for `CCc1nc2ccccc2n1CC(=O)N1CCCC(COc2ccccc2)C1` (stereo not shown) [Compound 140] was 10 to 50 µM. The value for `CCn1c(=O)n(CC)c2nc(N3C[C@@H](C)C[C@@H](COc4cccnc4C(F)(F)F)C3)cnc21` [Compound 288a, 1,3-Diethyl-5-((3S,5R)-3-methyl-5-(((2-(trifluoromethyl)pyridin-3-yl)oxy)methyl)piperidin-1-yl)-1,3-dihydro-2H-imidazo[4,5-b]pyrazin-2-one] was below 10 µM. Regarding `COc1ccc(CCCC(=O)N2CCCC(COc3ccccc3)C2)cc1` (stereo not shown) [Compound 182], the EC50 fell in the range of 10 to 50 µM. Molecule `COc1cccn(CC(=O)N2CCC(OCc3ccccc3)CC2)c1=O` [Compound 447] yielded an EC50 above 100 µM.

The molecule `COCCn1ncc2ncc(N3CC(COc4cccnc4C(F)(F)F)CCC3C)nc21` (stereo not shown) [Compound 123, 1-(2-Methoxyethyl)-6-(2-methyl-5-(((2-(trifluoromethyl)pyridin-3-yl)oxy)methyl)piperidin-1-yl)-1H-pyrazolo[3,4-b]pyrazine] came in with an EC50 below 10 µM.

With `O=C(c1ccn2c1CSCC2)N1CCCC(COc2ccccc2)C1` (stereo not shown) [Compound 220], the 50% effective concentration (EC50) lay within 50 to 100 µM.

The molecule `CCn1cc(-c2cccc(C(=O)N3CCC(OCc4ccccc4)CC3)c2)cn1` [Compound 476] gave an EC50 of 50 to 100 µM.

Turning to `O=C(c1ccc2cc[nH]c2c1)N1C[C@@H]2[C@@H](COc3cccnc3C(F)(F)F)[C@@H]2C1` [Compound 109, 6-[(1R,5S,6R)-6-({[2-(Trifluoromethyl)pyridin-3-yl]oxy}methyl)-3-azabicyclo[3.1.0]hexane-3-carbonyl]-1H-indole], the EC50 fell in the range of 10 to 50 µM. For `O=C(c1ccc2ccn(C3COC3)c2c1)N1CCC[C@H](CCc2ccccc2C(F)(F)F)C1` [Compound 19, 1-(oxetan-3-yl)-6-[(3S)-3-{2-[2-(trifluoromethyl)phenyl]ethyl}piperidine-1-carbonyl]-1H-indole], the EC50 was 10 to 50 µM.
